Measurements from patent publication US20210040089A1, “KRAS MUTANT PROTEIN INHIBITORS” (Jacobio Pharmaceuticals Co., Ltd., priority 2019, published 2021).

Columns and labels:
[1] = test system: Phospho-ERK1/2(THR202/TYR204) in NCI-H358 cells express KRAS G12C; experiment: Phospho-ERK1/2(THR202/TYR204) HTRF assay; assay type: cell-based; settings: Homo sapiens; NCI-H358, 2 hours incubation; read-out: p-ERK inhibition in NCI-H358 IC50
Outline: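 Compounds applied to attached cells for 2 h at 37 °C in RPMI 1640 with 0.1% FBS. Lysate phospho-ERK1/2 detected by HTRF after 4 h antibody incubation at 25 °C; IC50 from 4-parameter logistic fit.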

[2] = test system: NCI-H358 cells express KRAS G12C; experiment: Cell growth inhibition assay (CCK-8); assay type: cell-based; settings: Homo sapiens, 144 h; NCI-H358, 6 days incubation
Outline: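 Antiproliferative read-out: KRAS G12C-mutant NCI-H358 lung cancer cells (3000/well) exposed to compounds in RPMI 1640 with 10% FBS for 6 days at 37°C. Viability by CCK-8 (OD450) after 1.5-2 h; IC50 from 4-parameter logistic fit.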

KRAS G12C = target: T1, KRAS G12C (Homo sapiens, UniProt P01116, G12C); experiment: SOS1 catalyzed nucleotide exchange assay (TR-FRET); assay type: biochemical; settings: GDP-loaded HIS-KRAS(G12C), 1 hour pre-incubation with compound
T1 construct: HIS-KRAS (G12C, aa 2-185, Sino biological); purchased Sino biological
Outline: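 EDTA-stripped, GDP-loaded His-KRAS G12C (aa 2-185; 3 nM final) preincubated 1 h with compound, then SOS1 ExD (aa 564-1049; 2 μM) and BODIPY-FL GTP (80 nM) added for 4 h at 25 °C. TR-FRET via anti-His Tb cryptate (515/486 nm ratio); IC50 from 4-parameter logistic fit.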

NCI-H1373 cells = experiment: NCI-H1373 xenograft model; assay type: in vivo, female BALB/c mice; settings: for TGI % / Tumor volume at the end (Day 22): Day 22
Method: 4. NCI-H1373 xenograft model
NCI-H1373 cells (5.0E+06 cells) were injected subcutaneously into the right flank of female BALB/c mice (6-8 weeks) in a mixture with Matrigel (BD Bioscience). Mice were monitored daily and caliper measurements began when tumors became visible. Tumor volume was calculated by measuring two perpendicular diameters using the following formula: (L*w^2)/2 in which L and w refer to the length and width tumor diameter, respectively. When the average tumor volume reached 150-200 mm^3, mice were grouped (n=6/group) and treated with compounds. Tumor volume and mice weight was measured twice a week during treatment (˜3 weeks). Tumor growth inhibition rates were calculated by TGI %=(1−(Vt−Vt0)/(Vc−Vc0))*100%, where Vc, Vt are the mean tumor volume of control and treated groups at the end of the study, and Vc0 and Vt0 are the mean tumor volume of control and treated groups at the start.

T1 sequence (P01116 2-185 isoform P01116-2 G12C): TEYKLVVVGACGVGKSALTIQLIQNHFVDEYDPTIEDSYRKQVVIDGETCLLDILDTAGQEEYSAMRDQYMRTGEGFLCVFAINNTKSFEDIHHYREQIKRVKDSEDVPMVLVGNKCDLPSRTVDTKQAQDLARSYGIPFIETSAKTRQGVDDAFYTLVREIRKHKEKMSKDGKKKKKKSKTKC

SMILES: C=CC(=O)N1CCN(c2nc(OCC3(CN4CCCC4)CC3)nc3c2CCN(c2cccc4cccc(C)c24)C3)C[C@@H]1CC#N [Compound 67, (S)-2-(1-acryloyl-4-(7-(8-methylnaphthalen-1-yl)-2-((1-(pyrrolidin-1-ylmethyl)cyclopropyl)methoxy)-5,6,7,8-tetrahydropyrido[3,4-d]pyrimidin-4-yl)piperazin-2-yl)acetonitrile]
- IC50 [1]: 22.4 nM
- IC50 [2]: 20.4 nM
- IC50 (KRAS G12C): 1.84 nM
- TGI % (NCI-H1373 cells; Table 3, 10 mg/kg, QD): 106.1%
- Tumor volume at the end (Day 22) (NCI-H1373 cells; Table 3, 10 mg/kg, QD): 114 mm^3
- Tumor volume at the start (NCI-H1373 cells; Table 3, 10 mg/kg, QD): 188 mm^3

SMILES: C=C(F)C(=O)N1CCN(c2nc(OCC3CCCN3C)nc3c2CCN(c2cccc4cccc(Cl)c24)C3)C[C@@H]1CC#N (some centres unmarked) [MRTX 849, MRTX849, reference compound]
- TGI % (NCI-H1373 cells; Table 2, 10 mg/kg, QD): 79.0%
- Tumor volume at the end (Day 22) (NCI-H1373 cells; Table 2, 10 mg/kg, QD): 553 mm^3
- TGI % (NCI-H1373 cells; Table 3, 10 mg/kg, QD): 86.3%
- Tumor volume at the end (Day 22) (NCI-H1373 cells; Table 3, 10 mg/kg, QD): 355 mm^3
- Tumor volume at the start (NCI-H1373 cells; Table 3, 10 mg/kg, QD): 188 mm^3

SMILES: Cc1cccc2cccc(N3CCc4c(nc(OCC5(CN(C)C)CC5)nc4N4CCN(C(=O)/C=C/CF)[C@@H](CC#N)C4)C3)c12 [Compound 68, (S,E)-2-(4-(2-((1-((dimethylamino)methyl)cyclopropyl)methoxy)-7-(8-methylnaphthalen-1-yl)-5,6,7,8-tetrahydropyrido[3,4-d]pyrimidin-4-yl)-1-(4-fluorobut-2-enoyl)piperazin-2-yl)acetonitrile]
- IC50 [1]: 69.2 nM
- IC50 [2]: 51.5 nM
- IC50 (KRAS G12C): 1.6 nM
- TGI % (NCI-H1373 cells; Table 2, 10 mg/kg, BID): 82.6%
- Tumor volume at the end (Day 22) (NCI-H1373 cells; Table 2, 10 mg/kg, BID): 490 mm^3
- Tumor volume at the start (NCI-H1373 cells; Table 2, 10 mg/kg, BID): 191 mm^3

SMILES: C=CC(=O)N1CCN(c2nc(OCC3(CN4CCCC4)CC3)nc3c2CCN(c2cccc(F)c2C(F)(F)F)C3)CC1CC#N (centres unmarked) [Compound 34, 2-(1-acryloyl-4-(7-(3-fluoro-2-(trifluoromethyl)phenyl)-2-((1-(pyrrolidin-1-ylmethyl)cyclopropyl)methoxy)-5,6,7,8-tetrahydropyrido[3,4-d]pyrimidin-4-yl)piperazin-2-yl)acetonitrile]
- IC50 [1]: 54.5 nM
- IC50 [2]: 78.6 nM
- IC50 (KRAS G12C): 15.9 nM

SMILES: C=CC(=O)N1CCN(c2nc(OCC3(CN4CCN(C(C)=O)CC4)CC3)nc3c2CCN(c2cccc4cccc(C)c24)C3)CC1CC#N (centres unmarked) [Compound 66, 2-(4-(2-((1-((4-acetylpiperazin-1-yl)methyl)cyclopropyl)methoxy)-7-(8-methylnaphthalen-1-yl)-5,6,7,8-tetrahydropyrido[3,4-d]pyrimidin-4-yl)-1-acryloylpiperazin-2-yl)acetonitrile]
- IC50 [1]: 13.6 nM
- IC50 [2]: 25.1 nM
- IC50 (KRAS G12C): 1.46 nM

SMILES: C=CC(=O)N1CCN(c2nc(OCC3CCC(N(C)C)C3)nc3c2CCN(c2cccc4cccc(C)c24)C3)CC1CC#N (centres unmarked) [Compound 24, 2-(1-acryloyl-4-(2-((3-(dimethylamino)cyclopentyl)methoxy)-7-(8-methylnaphthalen-1-yl)-5,6,7,8-tetrahydropyrido[3,4-d]pyrimidin-4-yl)piperazin-2-yl)acetonitrile]
- IC50 [1]: 237 nM
- IC50 [2]: 93.6 nM
- IC50 (KRAS G12C): 20.1 nM

SMILES: C=CC(=O)N1CCN(c2nc(OCC3CC(N(C)C)C3)nc3c2CCN(c2cccc4ccccc24)C3)CC1CC#N (centres unmarked) [Compound 8, 2-(1-acryloyl-4-(2-((3-(dimethylamino)cyclobutyl)methoxy)-7-(naphthalen-1-yl)-5,6,7,8-tetrahydropyrido[3,4-d]pyrimidin-4-yl)piperazin-2-yl)acetonitrile]
- IC50 [1]: 769 nM
- IC50 [2]: 3470 nM
- IC50 (KRAS G12C): 408 nM

SMILES: C=CC(=O)N1CCN(c2nc(OCC3(CN4CCCC4)CC3)nc3c2CCN(c2cccc(Cl)c2C(F)(F)F)C3)CC1CC#N (centres unmarked) [Compound 38, 2-(1-acryloyl-4-(7-(3-chloro-2-(trifluoromethyl)phenyl)-2-((1-(pyrrolidin-1-ylmethyl)cyclopropyl)methoxy)-5,6,7,8-tetrahydropyrido[3,4-d]pyrimidin-4-yl)piperazin-2-yl)acetonitrile]
- IC50 [1]: 66 nM
- IC50 [2]: 60.2 nM
- IC50 (KRAS G12C): 5.24 nM

SMILES: C=CC(=O)N1CCN(c2nc(OCC3(CN4CCN(C)CC4)CC3)nc3c2CCN(c2cccc4cccc(C)c24)C3)CC1CC#N (centres unmarked) [Compound 58, 2-(1-acryloyl-4-(7-(8-methylnaphthalen-1-yl)-2-((1-((4-methylpiperazin-1-yl)methyl)cyclopropyl)methoxy)-5,6,7,8-tetrahydropyrido[3,4-d]pyrimidin-4-yl)piperazin-2-yl)acetonitrile]
- IC50 [1]: 44.3 nM
- IC50 [2]: 36.9 nM
- IC50 (KRAS G12C): 1.47 nM

SMILES: C=C(F)C(=O)N1CCN(c2nc(OCC3(CN(C)C)CC3)nc3c2CCN(c2cccc4cccc(C)c24)C3)C[C@@H]1CC#N [Compound 83, (S)-2-(4-(2-((1-((dimethylamino)methyl)cyclopropyl)methoxy)-7-(8-methylnaphthalen-1-yl)-5,6,7,8-tetrahydropyrido[3,4-d]pyrimidin-4-yl)-1-(2-fluoroacryloyl)piperazin-2-yl)acetonitrile]
- IC50 [1]: 190 nM
- IC50 [2]: 116 nM
- IC50 (KRAS G12C): 3.9 nM
- TGI % (NCI-H1373 cells; Table 2, 10 mg/kg, BID): 89.4%
- Tumor volume at the end (Day 22) (NCI-H1373 cells; Table 2, 10 mg/kg, BID): 374 mm^3
- Tumor volume at the start (NCI-H1373 cells; Table 2, 10 mg/kg, BID): 191 mm^3

SMILES: C=CC(=O)N1CCN(c2nc(OCC3(CN(C)C)CC3)nc3c2CCN(c2cccc4cccc(Cl)c24)C3)CC1CC#N (centres unmarked) [Compound 46, 2-(1-acryloyl-4-(7-(8-chloronaphthalen-1-yl)-2-((1-((dimethylamino)methyl)cyclopropyl)methoxy)-5,6,7,8-tetrahydropyrido[3,4-d]pyrimidin-4-yl)piperazin-2-yl)acetonitrile]
- IC50 [1]: 14.7 nM
- IC50 [2]: 26.9 nM
- IC50 (KRAS G12C): 2.57 nM

SMILES: C=C(F)C(=O)N1CCN(c2nc(OCC3(CN(C)C)CC3)nc3c2CCN(c2cccc4cccc(Cl)c24)C3)CC1CC#N (centres unmarked) [Compound 79, 2-(4-(7-(8-chloronaphthalen-1-yl)-2-((1-((dimethylamino)methyl)cyclopropyl)methoxy)-5,6,7,8-tetrahydropyrido[3,4-d]pyrimidin-4-yl)-1-(2-fluoroacryloyl)piperazin-2-yl)acetonitrile]
- IC50 [1]: 439 nM
- IC50 [2]: 239 nM
- IC50 (KRAS G12C): 6.03 nM

SMILES: C=CC(=O)N1CCN(c2nc(OCC3(CN4CCCC4)CC3)nc3c2CCN(c2cccc4cccc(C)c24)C3)CC1CC#N (centres unmarked) [Compound 56, 2-(1-acryloyl-4-(7-(8-methylnaphthalen-1-yl)-2-((1-(pyrrolidin-1-ylmethyl)cyclopropyl)methoxy)-5,6,7,8-tetrahydropyrido[3,4-d]pyrimidin-4-yl)piperazin-2-yl)acetonitrile]
- IC50 [1]: 38.2 nM
- IC50 [2]: 22.4 nM
- IC50 (KRAS G12C): 3.19 nM
- TGI % (NCI-H1373 cells; Table 2, 10 mg/kg, BID): 102.5%
- Tumor volume at the end (Day 22) (NCI-H1373 cells; Table 2, 10 mg/kg, BID): 148 mm^3
- Tumor volume at the start (NCI-H1373 cells; Table 2, 10 mg/kg, BID): 191 mm^3

SMILES: C=CC(=O)N1CCN(c2nc(OC(C)C3(CN(C)C)CC3)nc3c2CCN(c2cccc4cccc(C)c24)C3)CC1CC#N (centres unmarked) [Compound 57, 2-(1-acryloyl-4-(2-(1-(1-((dimethylamino)methyl)cyclopropyl)ethoxy)-7-(8-methylnaphthalen-1-yl)-5,6,7,8-tetrahydropyrido[3,4-d]pyrimidin-4-yl)piperazin-2-yl)acetonitrile]
- IC50 [1]: 296 nM
- IC50 [2]: 522 nM
- IC50 (KRAS G12C): 28.1 nM

SMILES: Cc1cccc2cccc(N3CCc4c(nc(OCC5(CN(C)C)CC5)nc4N4CCN(C(=O)/C=C/CO)C(CC#N)C4)C3)c12 (centres unmarked) [Compound 69, (E)-2-(4-(2-((1-((dimethylamino)methyl)cyclopropyl)methoxy)-7-(8-methylnaphthalen-1-yl)-5,6,7,8-tetrahydropyrido[3,4-d]pyrimidin-4-yl)-1-(4-hydroxybut-2-enoyl)piperazin-2-yl)acetonitrile]
- IC50 [1]: 157 nM
- IC50 [2]: 77.6 nM
- IC50 (KRAS G12C): 2.73 nM
